# Test results taken from US9777015B2, “Useful thiophene derivatives in the treatment of diabetes” (METABRAIN RESEARCH, priority 2012, dated 2017).
# Where two headings read alike, the source gives them in different places.
# System: hepatocytes isolated from Wistar rat liver
# Assay: Test of inhibition of hepatic production of glucose (isolated hepatocytes, 3 h or 20 h incubation)
# Type: cell-based
# Details: for activity at 50 µM / activity at 100 µM: Rattus norvegicus, Hepatocyte; for activity at 50 µM: read-out: HGP % of ctrl @ 50 μM; for activity at 100 µM: read-out: HGP % of ctrl @ 100 μM; for inhibition of hepatic production of glucose: with two doses
# Procedure: The hepatocytes are isolated from Wistar rat liver having fasted for 24 h after perfusion of collagenase in the portal vein. The freshly isolated hepatocytes are sown in 6-well plates coated with collagen and containing an adhesion medium (Williams Medium). After adhesion, the medium is replaced with RPMI 1640 medium without any glucose, containing hydrocortisone (7.10^−5M) for a duration from 16 to 18 h. The next day, the glucose hepatic production test is conducted in a Krebs medium for 3 h. The basal conditions are cells incubated with only Krebs, the stimulated conditions are the cells placed in Krebs+lactate+pyruvate, the produced conditions are the cells exposed to chemical compounds in a Krebs/lactate/pyruvate medium. In the case when the compounds are dissolved in DMSO, all the conditions of the tests are met in the presence of a final concentration of 0.1% DMSO. The positive control of the test is the mercaptopicolinate known for its inhibitory action on hepatic production of glucose via the phosphoenolpyruvate carboxykinase. For short term treatments, the compounds are incubated for 3 h. For long term treatments, the compounds are incubated for 20 h at the moment when the hepatocytes are cultivated in RPMI and then added during the hepatic production test for 3 h. At the end of the 3 hours of incubation, the supernatant is recovered for measurement of glucose with a colorimetric method using glucose oxidase. The cells are lysed with a 0.1% NaOH aqueous solution in order to measure the amount of protein with the Lowry method. The results are expressed in mmols of glucose per mg of protein.
# [1] = 3 h, hepatic glucose production, rat hepatocytes, 3 h incubation, compound at 50 μM
# [2] = 3 h, hepatic glucose production, rat hepatocytes, 3 h incubation, compound at 100 μM
smiles,measurement,setting,value
"COc1cccc(NC(=O)c2cc(CC(=O)OC(C)C)c(-c3ccc(Cl)cc3)s2)c1 [compound 115, isopropyl 2-(2-(4-chlorophenyl)-5-((3-methoxyphenyl)-carbamoyl)thiophen-3-yl)acetate]",activity at 50 µM,[1],66%
same,activity at 100 µM,[2],75%
"O=C(O)Cc1cc(C(=O)c2cccc(Cl)c2)sc1-c1ccc(Cl)cc1 [compound 58, 2-(5-(3-chlorobenzoyl)-2-(4-chlorophenyl)thiophen-3-yl)acetic acid]",inhibition of hepatic production of glucose,3 h incubation,strongest inhibitions
same,activity at 50 µM,[1],51%
same,activity at 100 µM,[2],25%
"COc1ccc(C(=NO)c2cc(CC(=O)O)c(-c3ccc(Cl)cc3)s2)cc1 [compound 109, 2-(2-(4-chlorophenyl)-5-((hydroxyimino)(4-methoxyphenyl)methyl)thiophen-3-yl)acetic acid]",activity at 50 µM,[1],69%
same,activity at 100 µM,[2],27%
"CCON=C(c1ccc(Cl)c(Cl)c1)c1cc(CC(=O)O)c(-c2ccc(Cl)cc2)s1 [compound 167, 2-[2-(4-chlorophenyl)-5-[C-(3,4-dichlorophenyl)-N-ethoxy-carbonimidoyl]-3-thienyl]acetic acid]",inhibition of hepatic production of glucose,3 h incubation,strongest inhibitions
same,activity at 50 µM,[1],20%
same,activity at 100 µM,[2],23%
"CCOC(=O)Cc1cc(C(=O)c2cccc(OC)c2)sc1-c1ccc(Cl)cc1 [compound 12, ethyl 2-(2-(4-chlorophenyl)-5-(3-methoxybenzoyl)thiophen-3-yl)acetate]",activity at 50 µM,[1],70%
same,activity at 100 µM,[2],53%
"COC(=O)Cc1cc(C(=O)c2cccc(OC)c2)sc1-c1ccccc1 [compound 4, methyl 2-(5-(3-methoxybenzoyl)-2-phenylthiophen-3-yl)acetate]",activity at 50 µM,[1],77%
same,activity at 100 µM,[2],75%
"CCOC(=O)Cc1cc(C(=O)c2cccc(F)c2)sc1-c1ccc(OC)cc1 [compound 26, ethyl 2-(5-(3-fluorobenzoyl)-2-(4-methoxyphenyl)thiophen-3-yl)acetate]",activity at 50 µM,[1],86%
same,activity at 100 µM,[2],71%
"COC(=O)Cc1cc(C(=O)c2cccc(Cl)c2)sc1-c1ccccc1 [compound 2, methyl 2-(5-(3-chlorobenzoyl)-2-phenylthiophen-3-yl)acetate]",activity at 50 µM,[1],83%
same,activity at 100 µM,[2],62%
"COc1cccc(CNC(=O)c2cc(CC(=O)OC(C)C)c(-c3ccc(Cl)cc3)s2)c1 [compound 116, isopropyl 2-(2-(4-chlorophenyl)-5-((3-methoxybenzyl)-carbamoyl)thiophen-3-yl)acetate]",activity at 50 µM,[1],62%
same,activity at 100 µM,[2],67%
"O=C(O)Cc1cc(C(=O)c2ccccc2)sc1-c1ccc(Cl)cc1 [compound 154, 2-[5-benzoyl-2-(4-chlorophenyl)-3-thienyl]acetic acid]",activity at 50 µM,[1],81%
same,activity at 100 µM,[2],63%
"CCOC(=O)Cc1cc(C(=O)CCc2ccccc2)sc1-c1ccc(Cl)cc1 [compound 17, ethyl 2-(2-(4-chlorophenyl)-5-(3-phenylpropanoyl)thiophen-3-yl)acetate]",activity at 50 µM,[1],76%
same,activity at 100 µM,[2],73%
"O=C(O)Cc1cc(C(=O)c2ccco2)sc1-c1ccc(Cl)cc1F [compound 144, 2-(2-(4-chloro-2-fluorophenyl)-5-(furan-2-carbonyl)thiophen-3-yl)acetic acid]",activity at 50 µM,[1],74%
same,activity at 100 µM,[2],52%
"COc1ccc(NC(=O)c2cc(CC(=O)O)c(-c3ccc(Cl)cc3)s2)cc1 [compound 121, 2-(2-(4-chlorophenyl)-5-((4-methoxyphenyl)carbamoyl)thiophen-3-yl)acetic acid]",activity at 50 µM,[1],80%
same,activity at 100 µM,[2],66%
"O=C([O-])Cc1cc(C(=O)c2ccco2)sc1-c1ccc(Cl)cc1.[Na+] [compound 82, sodium 2-(2-(4-chlorophenyl)-5-(furan-2-carbonyl)thiophen-3-yl)acetate]",HGP % of ctrl @ 50 μM,"hepatic glucose production, rat hepatocytes, 3 h incubation, compound at 50 μM",67 % of ctrl
same,HGP % of ctrl @ 100 μM,"hepatic glucose production, rat hepatocytes, 3 h incubation, compound at 100 μM",26 % of ctrl
"CCOC(=O)Cc1cc(C(=O)NNC(=O)c2ccncc2)sc1-c1ccc(Cl)cc1 [compound 179, ethyl 2-[2-(4-chlorophenyl)-5-[(pyridine-4-carbonyl-amino)-carbamoyl]-3-thienyl]acetate]",activity at 50 µM,[1],91%
same,activity at 100 µM,[2],69%
"CON=C(c1ccc(OC)cc1)c1cc(CC(=O)O)c(-c2ccc(Cl)cc2)s1 [compound 110, 2-(2-(4-chlorophenyl)-5-((methoxyimino)(4-methoxyphenyl)methyl)thiophen-3-yl)acetic acid]",activity at 50 µM,[1],72%
same,activity at 100 µM,[2],33%
"CCOC(=O)Cc1cc(C(=O)NNC(=O)c2cccc(OC)c2)sc1-c1ccc(Cl)cc1 [compound 178, ethyl 2-[2-(4-chlorophenyl)-5-[[(3-methoxybenzoyl)-amino]carbamoyl]-3-thienyl]acetate]",activity at 50 µM,[1],92%
same,activity at 100 µM,[2],72%
"COc1cc(Cl)ccc1C(=O)c1cc(CC(=O)O)c(-c2ccc(Cl)cc2)s1 [compound 156, 2-[5-(4-chloro-2-methoxy-benzoyl)-2-(4-chlorophenyl)-3-thienyl]acetic acid]",inhibition of hepatic production of glucose,3 h incubation,strongest inhibitions
same,activity at 50 µM,[1],21%
same,activity at 100 µM,[2],7%
"COC(=O)Cc1cc(C(=O)C2CCCCC2)sc1-c1ccccc1 [compound 6, methyl 2-(5-(cyclohexanecarbonyl)-2-phenylthiophen-3-yl)acetate]",activity at 50 µM,[1],72%
same,activity at 100 µM,[2],55%
"COc1cccc(C(=O)c2cc(CC(=O)O)c(-c3ccc(Cl)cc3)s2)c1 [compound 59, 2-(2-(4-chlorophenyl)-5-(3-methoxybenzoyl)thiophen-3-yl) acetic acid]",activity at 50 µM,[1],67%
same,activity at 100 µM,[2],35%
"COc1ccc(C(=O)c2cc(CC(=O)NC(=N)N)c(-c3ccc(Cl)cc3)s2)cc1.Cl [compound 185, N-carbamimidoyl-2-(2-(4-chlorophenyl)-5-(4-methoxybenzoyl)thiophen-3-yl) acetamide hydrochloride]",inhibition of hepatic production of glucose,3 h incubation,strongest inhibitions
same,activity at 50 µM,[1],54%
same,activity at 100 µM,[2],28%
"COc1ccc(C(=O)c2cc(CC(=O)OC(C)C)c(-c3ccc(Cl)cc3)s2)cc1 [compound 43, isopropyl 2-(2-(4-chlorophenyl)-5-(4-methoxybenzoyl)thiophen-3-yl)acetate]",activity at 50 µM,[1],82%
same,activity at 100 µM,[2],73%
"COc1ccc(C(=O)c2cc(CC(=O)O)c(-c3ccc(OC)cc3)s2)cc1 [compound 45, 2-(5-(4-methoxybenzoyl)-2-(4-methoxyphenyl)thiophen-3-yl)acetic acid]",activity at 50 µM,[1],82%
same,activity at 100 µM,[2],73%
"COc1ccc(C(=O)c2cc(CC(=O)O)c(-c3ccccc3)s2)cc1 [compound 51, 2-(5-(4-methoxybenzoyl)-2-phenylthiophen-3-yl)acetic acid]",activity at 50 µM,[1],90%
same,activity at 100 µM,[2],54%
"O=C(O)Cc1cc(C(=O)Cc2ccc(F)cc2)sc1-c1ccccc1 [compound 54, 2-(5-(2-(4-fluorophenyl)acetyl)-2-phenylthiophen-3-yl)acetic acid]",activity at 50 µM,[1],85%
same,activity at 100 µM,[2],74%
"CCOC(=O)Cc1cc(C(=O)c2ccccc2OC)sc1-c1ccc(OC)cc1 [compound 23, ethyl 2-(5-(2-methoxybenzoyl)-2-(4-methoxyphenyl)thiophen-3-yl)acetate]",activity at 50 µM,[1],79%
same,activity at 100 µM,[2],73%
"COc1ccc(C(=O)c2cc(CC(=O)NO)c(-c3ccc(Cl)cc3)s2)cc1 [compound 100, 2-(2-(4-chlorophenyl)-5-(4-methoxybenzoyl)thiophen-3-yl)-N-hydroxyacetamide]",inhibition of hepatic production of glucose,20 h incubation,strongest inhibitions
same,activity at 50 µM,"20 h, hepatic glucose production, rat hepatocytes, 20 h incubation, compound at 50 μM",43%
same,activity at 100 µM,"20 h, hepatic glucose production, rat hepatocytes, 20 h incubation, compound at 100 μM",20%
"COC(=O)Cc1cc(C(=O)c2ccccc2)sc1-c1ccccc1 [compound 7, methyl 2-(5-benzoyl-2-phenyl-thiophen-3-yl)acetate]",activity at 50 µM,[1],84%
same,activity at 100 µM,[2],70%
"O=C(O)Cc1cc(C(=O)C2CCCCC2)sc1-c1ccc(Cl)cc1 [compound 61, 2-(2-(4-chlorophenyl)-5-(cyclohexanecarbonyl)thiophen-3-yl)acetic acid]",activity at 50 µM,[1],78%
same,activity at 100 µM,[2],66%
"COc1ccc(C(=O)c2cc(C(C)C(=O)O)c(-c3ccc(Cl)cc3)s2)cc1 (centres unmarked) [compound 127, 2-(2-(4-chlorophenyl)-5-(4-methoxybenzoyl)thiophen-3-yl)propanoic acid]",inhibition of hepatic production of glucose,3 h incubation,strongest inhibitions
same,activity at 50 µM,[1],54%
same,activity at 100 µM,[2],23%
"COc1ccc(C(=O)c2cc(CC(=O)O)c(-c3ccc(Cl)cc3)s2)cc1 [compound 60, 2-(2-(4-chlorophenyl)-5-(4-methoxybenzoyl)thiophen-3-yl) acetic acid]",activity at 50 µM,[1],74%
same,activity at 100 µM,[2],53%
